Assay results from PMC12775434, “Ultra-large virtual screening unveils potent agonists of the neuromodulatory orphan receptor GPR139” (Nature Communications, 2025).
Several values for one entry are separate records, joined by “and”; a condition that tells them apart may be missing. Equal values may be shown once.

Assays:
[1] = target: T1, GPR139 (Homo sapiens, UniProt Q6DWJ6); assay: Ca2+ mobilization assay, antagonist mode (EC80 800 nM Lundbeck Cmp 1a after 20 min preincubation), GPR139-CHOk1; type: cell-based; settings: individual replicates (Supplementary Figure 1)
T1 sequence (Q6DWJ6 1-353): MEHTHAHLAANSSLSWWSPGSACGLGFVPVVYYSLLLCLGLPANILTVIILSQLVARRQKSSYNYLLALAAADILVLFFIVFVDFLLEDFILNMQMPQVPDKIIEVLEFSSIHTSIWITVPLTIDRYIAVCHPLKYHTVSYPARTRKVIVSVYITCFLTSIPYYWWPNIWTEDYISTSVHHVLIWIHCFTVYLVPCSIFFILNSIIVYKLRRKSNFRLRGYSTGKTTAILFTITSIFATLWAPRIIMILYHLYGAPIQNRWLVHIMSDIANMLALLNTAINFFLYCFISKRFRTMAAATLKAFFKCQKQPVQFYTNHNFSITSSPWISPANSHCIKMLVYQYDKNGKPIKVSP
Method: (§1) 30,000 GPR139- or M1R-CHOk1 cells/well were seeded in black clear bottom tissue culture treated 96-well plates (Greiner #655090) and grown for 20–24 h. Cells were washed with HEPES buffer (Hank’s Balanced Salt Solution (HBBS) supplemented with 20 mM HEPES, 1 mM MgCl2, and 1 mM CaCl2; pH 7.4). Cells were loaded with 50 µL of 2 µM Fluo-4 AM dye (ThermoFisher #F14202) in HEPES buffer supplemented with 2.5 mM probenecid and 0.01% Pluronic F-68 (ThermoFisher #24040032) for 1 h at 37 °C. Cells were washed with HEPES buffer. 50 µL HEPES buffer supplemented with 2.5 mM probenecid was added, and the cells were incubated for 10 min at 37 °C before measurement. 50 µL test compounds diluted in HEPES buffer from DMSO stocks (final DMSO concentration of maximally 0.3%) were added automatically after baseline measurements. The intracellular calcium mobilization was measured on a FlexStation 3 Multimode Microplate Reader (Molecular Devices) at 37 °C with filters for excitation of 485 nm and emission of 525 nm.
Our primary compound screening protocol consisted of two subsequent steps that allowed to screen for agonists and antagonists simultaneously. In the first step, the screening compounds were applied at 10 µM to test for agonist activity (agonist mode). Following 20 min incubation with the compounds added in the first step, in the second step, an EC80 concentration (800 nM) of the reference agonist Lundbeck Cmp 1a was applied to test for antagonist activity (antagonist mode). In the agonist mode (first step) response is seen only with compounds having agonist activity (Cmp 1a), but not with non-receptor-binding compounds (Vehicle) or antagonists (NCRW0105-E06) (Supplementary Fig. 14). […] No antagonist compounds were identified in this study.

[2] = target: T1, GPR139; assay: Ca2+ mobilization assay, agonist mode, stable GPR139-CHOk1 cell line; type: cell-based
Method: Primary screening and pharmacological characterization of compounds were performed using a CHO-K1 cell line that stably expresses human GPR139 (GPR139-CHOk1). The GPR139-CHOk1 cell line was kindly provided by H. Lundbeck A/S, Denmark[24]. GPR139-CHOk1 cells were grown in Ham’s F-12 Kaighn’s Modification Medium (ThermoFisher #21127030) supplemented with 10% dialyzed fetal bovine serum (US origin, ThermoFisher #26400044), 100 units/mL Penicillin-Streptomycin (ThermoFisher #15140122), and 1 mg/mL Geneticin (ThermoFisher #11811031). […] M1R-CHOk1 cells were purchased from The Missouri S&T cDNA Resource Center (#CEM100TN00). M1R-CHOk1 cells were grown in Ham’s F12 Medium (ThermoFisher #21765029) supplemented with 10% fetal bovine serum (Brazilian origin, ThermoFisher #10270106), 100 units/mL Penicillin-Streptomycin, and 0.25 mg/mL Geneticin. HEK293A cells transiently transfected with GPR139 were used for additional pharmacological assessment of signaling pathways activated by GPR139. HEK239A cells were generously provided by Dr. Asuka Inoue, Tohoku University, Japan. HEK293A cells were grown in Dulbecco’s Modified Eagle Medium (ThermoFisher #31966047) supplemented with 10% dialyzed fetal bovine serum and 100 units/mL Penicillin-Streptomycin. Cell lines were maintained at 37 °C in humidified incubator equilibrated with 5% CO2.
as §1
Our primary compound screening protocol consisted of two subsequent steps that allowed to screen for agonists and antagonists simultaneously. In the first step, the screening compounds were applied at 10 µM to test for agonist activity (agonist mode). Following 20 min incubation with the compounds added in the first step, in the second step, an EC80 concentration (800 nM) of the reference agonist Lundbeck Cmp 1a was applied to test for antagonist activity (antagonist mode).
Pharmacological data and statistical analyses were performed in GraphPad Prism v9–10 (Graphpad Software Inc., San Diego, CA), which are also specifically described in the figure and table legends. The functional assay responses were normalized to buffer (0%) and Lundbeck Cmp 1a or JNJ-63533054 (100%), for Ca^2+ and IP1 experiments in the GPR139-CHOk1 stable cell line or Ca^2+, G protein activation, and arrestin-3 recruitment experiments in the HEK293A cells transiently transfected with GPR139, respectively. Data are from at least three independent experiments, unless stated otherwise. Concentration-response curves were fitted applying non-linear regression using the log (agonist) versus response model with variable slope. ANOVA was applied for comparing results and determining statistical significance.

[3] = Agonist mode, individual replicates (Supplementary Figure 1)
[4] = primary screen, 10 µM compound, agonist mode, three columns = independent experiments

Compound	Ca2+ signal (% of Cmp 1a) [1]	Ca2+ signal (% of Cmp 1a) [2, 3]	Ca2+ signal (% of Cmp 1a) [2, 4]
CC1(C)COc2cc(NC(=O)NCc3cccnn3)ccc21 [Compound 52, CC1(C)COC=2C=C(NC(=O)NCC=3C=CC=NN3)C=CC21]	71.4617 % of Cmp 1a and 78.215 % of Cmp 1a and 78.5023 % of Cmp 1a	1.65 % of Cmp 1a and 1.26 % of Cmp 1a and 1.78 % of Cmp 1a	1.65 % of Cmp 1a and 1.26 % of Cmp 1a and 1.78 % of Cmp 1a
C[C@@H](NC(=O)CSc1nnc2n1CCCCC2)c1ccccc1 [Compound 53, C[C@@H](NC(=O)CSC1=NN=C2CCCCCN12)C=3C=CC=CC3]	70.6126 % of Cmp 1a and 69.0784 % of Cmp 1a and 84.522 % of Cmp 1a	10 % of Cmp 1a and 6 % of Cmp 1a and 3.73 % of Cmp 1a	–
C[C@@H](NC(=O)CSc1nnc(C(F)(F)F)s1)c1ccccc1 [Compound 54, C[C@@H](NC(=O)CSC1=NN=C(S1)C(F)(F)F)C=2C=CC=CC2]	75.2455 % of Cmp 1a and 70.4918 % of Cmp 1a and 82.6113 % of Cmp 1a	0.563 % of Cmp 1a and 1.54 % of Cmp 1a and 23 % of Cmp 1a	–
C[C@@H](NC(=O)Cn1c2c(sc1=O)CCCCC2)c1ccccc1 [Compound 55, C[C@@H](NC(=O)CN1C=2CCCCCC2SC1=O)C=3C=CC=CC3]	74.6627 % of Cmp 1a and 75.4146 % of Cmp 1a and 90.0274 % of Cmp 1a	18 % of Cmp 1a and -2.59 % of Cmp 1a and 22 % of Cmp 1a	–
Cc1ccc(C(C)(C)NC(=O)Nc2cnc3nccn3c2)cn1 [Compound 56, CC=1C=CC(=CN1)C(C)(C)NC(=O)NC=2C=NC3=NC=CN3C2]	82.8713 % of Cmp 1a	5.3 % of Cmp 1a	–
O=C(CCn1nnn(-c2ccccc2)c1=O)Nc1ccc(F)cc1 [Compound 57, FC=1C=CC(NC(=O)CCN2N=NN(C=3C=CC=CC3)C2=O)=CC1]	80.3514 % of Cmp 1a and 84.9179 % of Cmp 1a and 81.9632 % of Cmp 1a	6 % of Cmp 1a and 0.524 % of Cmp 1a and 4 % of Cmp 1a	–
O=C(Nc1nc(C(F)(F)F)cs1)c1ccccc1-n1cnnn1 [Compound 58, FC(F)(F)C1=CSC(NC(=O)C=2C=CC=CC2N3C=NN=N3)=N1]	95.3999 % of Cmp 1a and 91.9653 % of Cmp 1a and 85.8363 % of Cmp 1a	8 % of Cmp 1a and -1.73 % of Cmp 1a and -5 % of Cmp 1a	–
Cc1ccc(Oc2ccc(NC(=O)C(C)n3cccn3)cn2)cc1 (stereo not shown) [Compound 59, CC(C(=O)NC=1C=CC(OC=2C=CC(C)=CC2)=NC1)N3C=CC=N3]	78.8114 % of Cmp 1a and 81.7621 % of Cmp 1a and 78.2182 % of Cmp 1a	-2 % of Cmp 1a and -8 % of Cmp 1a and 2.12 % of Cmp 1a	–
Cc1ccc(C(=O)Nc2cccc(-c3nnc[nH]3)c2)c2c1CCC2 [Compound 61, CC=1C=CC(C(=O)NC=2C=CC=C(C2)C3=NN=CN3)=C4CCCC41]	50.3835 % of Cmp 1a and 83.4509 % of Cmp 1a and 72.5179 % of Cmp 1a	-6 % of Cmp 1a and -0.901 % of Cmp 1a and -0.172 % of Cmp 1a	–
CCN(C(=O)c1cc(Cc2ccccc2)n[nH]1)c1ccc(F)cc1 [Compound 62, CCN(C(=O)C1=CC(CC=2C=CC=CC2)=NN1)C=3C=CC(F)=CC3]	74.8769 % of Cmp 1a and 70.0616 % of Cmp 1a and 70.7351 % of Cmp 1a	3 % of Cmp 1a and 5.34 % of Cmp 1a and 3.55 % of Cmp 1a	3 % of Cmp 1a and 5.34 % of Cmp 1a and 3.55 % of Cmp 1a
C[C@@H](NC(=O)CSc1nc2cc(Cl)cnc2[nH]1)c1ccccc1 [Compound 63, C[C@@H](NC(=O)CSC1=NC=2C=C(Cl)C=NC2N1)C=3C=CC=CC3]	69.704 % of Cmp 1a and 80.7602 % of Cmp 1a and 71.5084 % of Cmp 1a	14 % of Cmp 1a and 5 % of Cmp 1a and 16 % of Cmp 1a	–
O=C(NCc1ccc(Cl)s1)c1ccnc(-n2cncn2)c1 [Compound 64, ClC1=CC=C(CNC(=O)C=2C=CN=C(C2)N3C=NC=N3)S1]	87.3464 % of Cmp 1a and 90.999 % of Cmp 1a and 82.6211 % of Cmp 1a	-4 % of Cmp 1a and -5 % of Cmp 1a and -0.942 % of Cmp 1a	–
Cc1noc(-c2ccc(C)c(NC(=O)CSc3nncs3)c2)n1 [Compound 65, CC1=NOC(=N1)C=2C=CC(C)=C(NC(=O)CSC3=NN=CS3)C2]	71.2308 % of Cmp 1a and 90.2803 % of Cmp 1a and 89.1818 % of Cmp 1a	2.7 % of Cmp 1a and 1.38 % of Cmp 1a and -3.61 % of Cmp 1a	–
O=C(CCn1cncn1)Nc1ccc(Oc2ccc(Cl)cc2)nc1 [Compound 66, ClC=1C=CC(OC=2C=CC(NC(=O)CCN3C=NC=N3)=CN2)=CC1]	74.4571 % of Cmp 1a and 74.7932 % of Cmp 1a and 88.8781 % of Cmp 1a	6.43 % of Cmp 1a and -3.62 % of Cmp 1a and -6 % of Cmp 1a	–
CC(C(=O)Nc1cccc(-c2nc3ccccc3n2C)c1)n1cccn1 (stereo not shown) [Compound 67, CC(C(=O)NC=1C=CC=C(C1)C2=NC=3C=CC=CC3N2C)N4C=CC=N4]	87.0817 % of Cmp 1a and 99.3874 % of Cmp 1a and 88.8295 % of Cmp 1a	3.19 % of Cmp 1a and -6 % of Cmp 1a and -7 % of Cmp 1a	–
Cc1ccc(-c2nc(CC(=O)NCc3ccccc3)cs2)cc1 [Compound 68, CC=1C=CC(=CC1)C2=NC(CC(=O)NCC=3C=CC=CC3)=CS2]	60.0488 % of Cmp 1a and 59.0311 % of Cmp 1a and 102.015 % of Cmp 1a	-9 % of Cmp 1a and 15 % of Cmp 1a and 19 % of Cmp 1a	–
